Assay results taken from US9873696B2, “Neprilysin inhibitors” (THERAVANCE BIOPHARMA R&D IP, LLC, priority 2010, dated 2018).

The compounds below were run against T1, human NEP (Homo sapiens, UniProt P08473) (assay: In vitro enzyme inhibition assay at human NEP (Assay 1)). Conditions: recombinant enzyme, fluorogenic peptide substrate, 37° C.
T1 construct: purchased R&D Systems, Minneapolis, Minn; 1182-ZN
Assay type: biochemical
In short: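 Recombinant enzyme preincubated with compound 30 min at 37 °C, then 10 μM Mca-D-Arg-Arg-Leu-Dap-(Dnp)-OH added in 50 mM HEPES pH 7.5, 100 mM NaCl, 0.01% Tween-20, 10 μM ZnSO4; stopped after 20 min with acetic acid. Fluorescence read at 320/405 nm; Ki from nonlinear fit of v=v0/[1+(I/K′)], reported as pKi.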

T1 sequence (P08473 whole entry): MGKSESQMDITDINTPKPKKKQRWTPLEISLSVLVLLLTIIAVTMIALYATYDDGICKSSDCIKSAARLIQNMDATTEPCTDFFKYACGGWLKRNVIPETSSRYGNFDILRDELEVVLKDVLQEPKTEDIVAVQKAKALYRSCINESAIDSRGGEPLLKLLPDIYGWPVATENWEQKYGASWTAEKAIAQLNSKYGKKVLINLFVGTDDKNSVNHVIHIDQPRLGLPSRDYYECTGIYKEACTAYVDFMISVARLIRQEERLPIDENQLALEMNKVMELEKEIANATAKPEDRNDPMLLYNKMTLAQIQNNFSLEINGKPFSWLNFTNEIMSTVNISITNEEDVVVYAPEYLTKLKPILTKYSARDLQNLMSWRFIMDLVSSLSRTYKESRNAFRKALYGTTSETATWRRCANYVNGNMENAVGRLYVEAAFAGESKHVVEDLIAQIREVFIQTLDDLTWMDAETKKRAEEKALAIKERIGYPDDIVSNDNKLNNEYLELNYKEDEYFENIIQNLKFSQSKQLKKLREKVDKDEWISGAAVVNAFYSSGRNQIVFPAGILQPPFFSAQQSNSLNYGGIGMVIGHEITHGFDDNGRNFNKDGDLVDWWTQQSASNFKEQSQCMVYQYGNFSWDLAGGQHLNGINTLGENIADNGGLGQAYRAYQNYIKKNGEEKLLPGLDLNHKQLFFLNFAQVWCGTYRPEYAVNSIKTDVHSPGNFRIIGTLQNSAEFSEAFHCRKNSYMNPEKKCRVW

**Q.** `COc1ccccc1C(=O)Nc1cc(C(=O)NN(Cc2ccc(-c3cc(Cl)ccc3F)cc2)C[C@@H](O)C(=O)O)[nH]n1` [Example 8-49, (R)-3-{N-(5′-Chloro-2′-fluoro-biphenyl-4-ylmethyl)-N′-[5-(2-methoxy-benzoylamino)-2H-pyrazole-3-carbonyl]-hydrazino}-2-hydroxy-propionic acid] was tested. Which Ki did it give?
**A.** ≤ 1 nM

**Q.** With `O=C(NN(Cc1ccc(-c2cc(Cl)ccc2F)cc1)C[C@@H](O)C(=O)O)c1cc(-c2cnccn2)[nH]n1` [Example 8-50, (R)-3-[N-(5′-Chloro-2′-fluoro-biphenyl-4-ylmethyl)-N′-(5-pyrazin-2-yl-1H-pyrazole-3-carbonyl)-hydrazino]-2-hydroxy-propionic acid] as the compound, how does the Ki read?
**A.** ≤ 1 nM

**Q.** How did the Ki turn out when `O=C(NN(Cc1ccc(-c2cc(Cl)ccc2F)cc1)C[C@@H](O)C(=O)O)c1cc(O)n(-c2ccccn2)n1` [Example 8-51, (R)-3-[N-(5′-Chloro-2′-fluoro-biphenyl-4-ylmethyl)-N′-(5-hydroxy-1-pyridin-2-yl-1H-pyrazole-3-carbonyl)-hydrazino]-2-hydroxy-propionic acid] was run?
**A.** 1.26 to 10 nM

**Q.** How did the Ki turn out when `O=C(NN(Cc1ccc(-c2cc(Cl)ccc2F)cc1)C[C@@H](O)C(=O)O)c1cc(O)n(-c2ccccc2F)n1` [Example 8-52, (R)-3-{N-(5′-Chloro-2′-fluoro-biphenyl-4-ylmethyl)-N′-[1-(2-fluoro-phenyl)-5-hydroxy-1H-pyrazole-3-carbonyl]-hydrazino}-2-hydroxy-propionic acid] was run?
**A.** 1.26 to 10 nM

**Q.** `O=C(O)Cn1nc(C(=O)NN(Cc2ccc(-c3cc(Cl)ccc3F)cc2)C[C@@H](O)C(=O)O)cc1C1CC1` [Example 8-53, (R)-3-[N′-(1-Carboxymethyl-5-cyclopropyl-1H-pyrazole-3-carbonyl)-N-(5′-chloro-2′-fluoro-biphenyl-4-ylmethyl)-hydrazino]-2-hydroxy-propionic acid] was tested. Which Ki did it give?
**A.** 1.26 to 10 nM

**Q.** With `CC(C)c1cc(C(=O)NN(Cc2ccc(-c3cc(Cl)ccc3F)cc2)C[C@@H](O)C(=O)O)nn1CC(=O)O` [Example 8-54, (R)-3-[N′-(1-Carboxymethyl-5-isopropyl-1H-pyrazole-3-carbonyl)-N-(5′-chloro-2′-fluoro-biphenyl-4-ylmethyl)-hydrazino]-2-hydroxy-propionic acid] as the compound, how does the Ki read?
**A.** 1.26 to 10 nM

**Q.** With `CCCCc1cc(C(=O)NN(Cc2ccc(-c3cc(Cl)ccc3F)cc2)C[C@@H](O)C(=O)O)nn1CC(=O)O` [Example 8-55, (R)-3-[N′-(5-Butyl-1-carboxymethyl-1H-pyrazole-3-carbonyl)-N-(5′-chloro-2′-fluoro-biphenyl-4-ylmethyl)-hydrazino]-2-hydroxy-propionic acid] as the compound, how does the Ki read?
**A.** 1.26 to 10 nM

**Q.** Which Ki does the source give for `CC(C)(O)c1cc(C(=O)NN(Cc2ccc(-c3cc(Cl)ccc3F)cc2)C[C@@H](O)C(=O)O)nn1CC(=O)O` [Example 8-56, (R)-3-[N′-[1-Carboxymethyl-5-(1-hydroxy-1-methyl-ethyl)-1H-pyrazole-3-carbonyl]-N-(5′-chloro-2′-fluoro-biphenyl-4-ylmethyl)-hydrazino]-2-hydroxy-propionic acid] here?
**A.** 1.26 to 10 nM

**Q.** Which Ki does the source give for `CCOc1cc(C(=O)NN(Cc2ccc(-c3cc(Cl)ccc3F)cc2)C[C@@H](O)C(=O)O)n[nH]1` [Example 8-57, (R)-3-[N-(5′-Chloro-2′-fluoro-biphenyl-4-ylmethyl)-N′-(5-ethoxy-1H-pyrazole-3-carbonyl)-hydrazino]-2-hydroxy-propionic acid] here?
**A.** 1.26 to 10 nM

**Q.** With `O=C(NN(Cc1ccc(-c2cc(Cl)ccc2F)cc1)C[C@@H](O)C(=O)O)c1ccc(=O)[nH]n1` [Example 8-58, (R)-3-[N-(5′-Chloro-2′-fluoro-biphenyl-4-ylmethyl)-N′-(6-oxo-1,6-dihydro-pyridazine-3-carbonyl)-hydrazino]-2-hydroxy-propionic acid] as the compound, how does the Ki read?
**A.** ≤ 1 nM

**Q.** How did the Ki turn out when `Cc1ccc(Cl)cc1-c1ccc(CN(C[C@@H](O)C(=O)O)NC(=O)c2nnn[nH]2)cc1` [Example 8-59, (R)-3-[N-(5′-Chloro-2′-methyl-biphenyl-4-ylmethyl)-N′-(1H-tetrazole-5-carbonyl)-hydrazino]-2-hydroxy-propionic acid] was run?
**A.** ≤ 1 nM

**Q.** With `O=C(NN(Cc1ccc(-c2cc(Cl)ccc2Cl)cc1)C[C@@H](O)C(=O)O)c1nnn[nH]1` [Example 8-60, (R)-3-[N-(2′,5′-Dichloro-biphenyl-4-ylmethyl)-N′-(1H-tetrazole-5-carbonyl)-hydrazino]-2-hydroxy-propionic acid] as the compound, how does the Ki read?
**A.** ≤ 1 nM

**Q.** For `O=C(NN(Cc1ccc(-c2cc(Cl)ccc2F)cc1)C[C@@H](O)C(=O)O)c1nn(-c2ccccc2)c(=O)[nH]1` [Example 8-64, (R)-3-[N-(5′-Chloro-2′-fluoro-biphenyl-4-ylmethyl)-N′-(5-oxo-1-phenyl-4,5-dihydro-1H-[1,2,4]triazole-3-carbonyl)-hydrazino]-2-hydroxy-propionic acid], which Ki is on record?
**A.** ≤ 1 nM

**Q.** For `O=C(NN(Cc1ccc(-c2cc(Cl)ccc2F)cc1)C[C@@H](O)C(=O)O)c1nn(-c2ccc(F)cc2)c(=O)[nH]1` [Example 8-65, (R)-3-{N-(5′-Chloro-2′-fluoro-biphenyl-4-ylmethyl)-N′-[1-(4-fluoro-phenyl)-5-oxo-4,5-dihydro-1H-[1,2,4]triazole-3-carbonyl]-hydrazino}-2-hydroxy-propionic acid], which Ki is on record?
**A.** 1.26 to 10 nM

**Q.** Which Ki does the source give for `O=C(NN(Cc1ccc(-c2cc(Cl)ccc2F)cc1)C[C@@H](O)C(=O)O)c1nn(-c2ccccc2Cl)c(=O)[nH]1` [Example 8-66, (R)-3-{N-(5′-Chloro-2′-fluoro-biphenyl-4-ylmethyl)-N′-[1-(2-chloro-phenyl)-5-oxo-4,5-dihydro-1H-[1,2,4]triazole-3-carbonyl]-hydrazino}-2-hydroxy-propionic acid] here?
**A.** 1.26 to 10 nM

**Q.** For `O=C(NN(Cc1ccc(-c2cc(Cl)ccc2F)cc1)C[C@@H](O)C(=O)O)c1nn(-c2cccc(Cl)c2)c(=O)[nH]1` [Example 8-67, (R)-3-{N-(5′-Chloro-2′-fluoro-biphenyl-4-ylmethyl)-N′-[1-(3-chloro-phenyl)-5-oxo-4,5-dihydro-1H-[1,2,4]triazole-3-carbonyl]-hydrazino}-2-hydroxy-propionic acid], which Ki is on record?
**A.** ≤ 1 nM

**Q.** Which Ki does the source give for `Cc1cc(C(=O)NN(Cc2ccc(-c3cc(Cl)ccc3F)cc2)C[C@@H](O)C(=O)O)cc2[nH]nnc12` [Example 8-68, (R)-3-[N-(5′-Chloro-2′-fluoro-biphenyl-4-ylmethyl)-N′-(7-methyl-3H-benzotriazole-5-carbonyl)-hydrazino]-2-hydroxy-propionic acid] here?
**A.** 1.26 to 10 nM

**Q.** For `O=C(NN(Cc1ccc(-c2cc(Cl)ccc2F)cc1)C[C@@H](O)C(=O)O)c1cc(Cl)c2nn[nH]c2c1` [Example 8-69, (R)-3-[N′-(7-Chloro-3H-benzotriazole-5-carbonyl)-N-(5′-chloro-2′-fluoro-biphenyl-4-ylmethyl)-hydrazino]-2-hydroxy-propionic acid], which Ki is on record?
**A.** ≤ 1 nM

**Q.** With `O=C(NN(Cc1ccc(-c2cc(Cl)ccc2F)cc1)C[C@@H](O)C(=O)O)c1cc(F)c2nn[nH]c2c1` [Example 8-73, (R)-3-[N-(5′-Chloro-2′-fluoro-biphenyl-4-ylmethyl)-N′-(7-fluoro-3H-benzotriazole-5-carbonyl)-hydrazino]-2-hydroxy-propionic acid] as the compound, how does the Ki read?
**A.** ≤ 1 nM

**Q.** Which Ki does the source give for `O=C(NN(Cc1ccc(-c2cc(Cl)ccc2F)cc1)C[C@@H](O)C(=O)O)c1c[nH]c(=O)o1` [Example 8-74, (R)-3-[N-(5′-Chloro-2′-fluoro-biphenyl-4-ylmethyl)-N′-(2-oxo-2,3-dihydro-oxazole-5-carbonyl)-hydrazino]-2-hydroxy-propionic acid] here?
**A.** ≤ 1 nM

**Q.** For `O=C(NN(Cc1ccc(-c2cc(Cl)ccc2F)cc1)C[C@@H](O)C(=O)O)c1cnn[nH]1` [Example 8-75, (R)-3-[N-(5′-Chloro-2′-fluoro-biphenyl-4-ylmethyl)-N′-(3H-[1,2,3]triazole-4-carbonyl)-hydrazino]-2-hydroxy-propionic acid], which Ki is on record?
**A.** ≤ 1 nM

**Q.** `O=C(NN(Cc1ccc(-c2cc(Cl)ccc2F)cc1)C[C@@H](O)C(=O)O)c1cn(O)nn1` [Example 8-76, (R)-3-[N-(5′-Chloro-2′-fluoro-biphenyl-4-ylmethyl)-N′-(1-hydroxy-1H-[1,2,3]triazole-4-carbonyl)-hydrazino]-2-hydroxy-propionic acid] was tested. Which Ki did it give?
**A.** ≤ 1 nM

**Q.** `Cc1ccc(Cl)cc1-c1ccc(CN(C[C@@H](O)C(=O)O)NC(=O)c2cn(O)nn2)cc1` [Example 8-80, (R)-3-[N-(5′-Chloro-2′-methyl-biphenyl-4-ylmethyl)-N′-(1-hydroxy-1H-[1,2,3]triazole-4-carbonyl)-hydrazino]-2-hydroxy-propionic acid] was tested. Which Ki did it give?
**A.** ≤ 1 nM

**Q.** Which Ki does the source give for `O=C(NN(Cc1ccc(-c2cc(Cl)cc(Cl)c2)cc1)C[C@@H](O)C(=O)O)c1cn(O)nn1` [Example 8-81, (R)-3-[N-(3′,5′-Dichloro-biphenyl-4-ylmethyl)-N′-(1-hydroxy-1H-[1,2,3]triazole-4-carbonyl)-hydrazino]-2-hydroxy-propionic acid] here?
**A.** 12.6 to 100 nM

**Q.** Which Ki does the source give for `O=C(NN(Cc1ccc(-c2cc(Cl)ccc2F)cc1)C[C@@H](O)C(=O)O)c1n[nH]c(Cl)n1` [Example 8-82, (R)-3-[N-(5′-Chloro-2′-fluoro-biphenyl-4-ylmethyl)-N′-(5-chloro-1H-[1,2,4]triazole-3-carbonyl)-hydrazino]-2-hydroxy-propionic acid] here?
**A.** ≤ 1 nM

**Q.** How did the Ki turn out when `O=C(NN(Cc1ccc(-c2cc(Cl)ccc2F)cc1)C[C@@H](O)C(=O)O)c1cnc(O)s1` [Example 8-83, (R)-3-[N-(5′-Chloro-2′-fluoro-biphenyl-4-ylmethyl)-N′-(2-hydroxy-thiazole-5-carbonyl)-hydrazino]-2-hydroxy-propionic acid] was run?
**A.** ≤ 1 nM

**Q.** Which Ki does the source give for `O=C(NN(Cc1ccc(-c2cccc(Cl)c2)cc1F)C[C@@H](O)C(=O)O)c1cc(O)no1` [Example 9A, (R)-3-[N-(3′-Chloro-3-fluorobiphenyl-4-ylmethyl)-N′-(3-hydroxyisoxazole-5-carbonyl)-hydrazino]-2-hydroxpropionic Acid] here?
**A.** ≤ 1 nM

**Q.** `O=C(NN(Cc1ccc(-c2ccccc2)cc1F)C[C@@H](O)C(=O)O)c1cc(O)no1` [Example 10-1, (R)-3-[N-(3-Fluoro-biphenyl-4-ylmethyl)-N′-(3-hydroxy-isoxazole-5-carbonyl)-hydrazino]-2-hydroxy-propionic acid] was tested. Which Ki did it give?
**A.** 1.26 to 10 nM
